Here are results for 13 compounds from US20090221829A1 (priority 2005, published 2009).

The structures appear in SMILES notation.

The subject of the experiment is Candida albicans(KCTC 1940), Aspergillus niger (ATCC 9642) and Saccharomyces cerevisiae. Briefly: Relative antifungal activity by agar dilution method (vs Miconazole).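 Note: scores 5 to 7 mean a lower fungicidal concentration than Miconazole so higher is more potent.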 Type of experiment: cell-based. As to conditions: agar dilution method; fungicidal concentration relative to control drug Miconazole (=4). An excerpt: Novel compounds represented by the above chemical formula (I), and the relative activities in accordance with the agar dilution method in Sabouraud dextrose agar media, Czapek agar media and Yeast Extract-Peptone-Dextrose agar media for Candida albicans(KCTC 1940), Aspergillus niger (ATCC 9642) and Saccharomyces cerevisiae are described respectively in following Table 1.
With `CCCCCCC1=[N+](Cc2ccccc2F)CCc2cc(OC)ccc21.[Cl-]` [Compound No. 86, 1-n-hexyl-2-(2-fluorophenyl)methyl-3,4-dihydro-6-methoxyisoquinolinium chloride], the “Relative Activity” value came to 5.

`CCCCCCCC1=[N+](Cc2ccccc2F)CCc2cc(OC)ccc21.[Cl-]` [Compound No. 87, 1-n-heptyl-2-(2-fluorophenyl)methyl-3,4-dihydro-6-methoxyisoquinolinium chloride]: the “Relative Activity” value turned out to be 5.

Turning to `CCCCCCCCCCCC1=[N+](Cc2ccccc2F)CCc2cc(OC)ccc21.[Cl-]` [Compound No. 88, 1-n-undecyl-2-(2-fluorophenyl)methyl-3,4-dihydro-6-methoxyisoquinolinium chloride], the “Relative Activity” value is reported as 2.

For `CCCCCCCCCCCCCCCC1=[N+](Cc2ccccc2F)CCc2cc(OC)ccc21.[Cl-]` [Compound No. 89, 1-n-pentadecyl-2-(2-fluorophenyl)methyl-3,4-dihydro-6-methoxyisoquinolinium chloride], the “Relative Activity” value came to 1.

`COc1ccc2c(c1)CC[N+](Cc1ccccc1F)=C2c1ccccc1F.[Cl-]` [Compound No. 90, 1-(2-fluorophenyl)-2-(2-fluorophenyl)methyl-3,4-dihydro-6-methoxyisoquinolinium chloride]: the “Relative Activity” value was 6.

Regarding `COc1ccc2c(c1)CC[N+](Cc1ccccc1F)=C2c1ccc(C(C)(C)C)cc1.[Cl-]` [Compound No. 91, 1-(4-t-butylphenyl)-2-(2-fluorophenyl)methyl-3,4-dihydro-6-methoxyisoquinolinium chloride], the “Relative Activity” value was 6.

For `CC1=[N+](Cc2ccc(C(F)(F)F)cc2)CCc2cc3c(cc21)OCO3.[Cl-]` [Compound No. 107, 1-methyl-2-(4-trifluoromethylphenyl)methyl-3,4-dihydro-6,7-methylenedioxyisoquinolinium chloride], the “Relative Activity” value was determined as 6.

As for `CCCCCCCC1=[N+](Cc2ccc(C(F)(F)F)cc2)CCc2cc3c(cc21)OCO3.[Cl-]` [Compound No. 108, 1-n-heptyl-2-(4-trifluoromethylphenyl)methyl-3,4-dihydro-6,7-methylenedioxyisoquinolinium chloride], the “Relative Activity” value is 4.

For the compound `CCCCCCCCCCCCCCCC1=[N+](Cc2ccc(C(F)(F)F)cc2)CCc2cc3c(cc21)OCO3.[Cl-]` [Compound No. 109, 1-n-pentadecyl-2-(4-trifluoromethylphenyl)methyl-3,4-dihydro-6,7-methylenedioxyisoquinolinium chloride], the “Relative Activity” value is listed as 1.

Take `CC(C)(C)c1ccc(C2=[N+](Cc3ccc(C(F)(F)F)cc3)CCc3cc4c(cc32)OCO4)cc1.[Cl-]` [Compound No. 110, 1-(4-t-butylphenyl)-2-(4-trifluoromethylphenyl)methyl-3,4-dihydro-6,7-methylenedioxyisoquinolinium chloride]: the “Relative Activity” value is on record as 6.

With `CCCCCCCC1=[N+](Cc2ccc(F)c(F)c2)CCc2cc3c(cc21)OCO3.[Cl-]` [Compound No. 112, 1-n-heptyl-2-(3,4-difluorophenyl)methyl-3,4-dihydro-6,7-methylenedioxyisoquinolinium chloride], the “Relative Activity” value was 4.

Regarding `CCCCCCCCCCCCCCCC1=[N+](Cc2ccc(F)c(F)c2)CCc2cc3c(cc21)OCO3.[Cl-]` [Compound No. 113, 1-n-pentadecyl-2-(3,4-difluorophenyl)methyl-3,4-dihydro-6,7-methylenedioxyisoquinolinium chloride], the “Relative Activity” value was 1.

Consider `CC(C)(C)c1ccc(C2=[N+](Cc3ccc(F)c(F)c3)CCc3cc4c(cc32)OCO4)cc1.[Cl-]` [Compound No. 114, 1-(4′-t-butylphenyl)-2-(3,4-difluorophenyl)methyl-3,4-dihydro-6,7-methylenedioxyisoquinolinium chloride], for which the “Relative Activity” value came out at 6.
